# Experimental data: patent US7829573B2, “Therapeutic combinations of antihypertensive and antiangiogenics agents” (AstraZeneca AB, priority 2000, dated 2010)
# Read-outs that look alike come from different tables or passages of the source.
# Legend:
# [1] = Measurement of blood pressure in conscious rats by radio telemetry; format: in vivo, rat
# Experimental: Blood pressure was measured using the Data Sciences radio-telemetry equipment (Data Sciences International, Saint Paul, Minn., USA). This provides a means of measuring the blood pressure (BP), heart rate and activity of a conscious unrestrained rat remotely. The measurements obtained using this system are free from the stresses induced by surgery and restraint. The system comprises a pressure transducer (TA11PA-C40) (the ‘implant’) implanted in the abdomen of a rat which transmits a radio signal indicating the pressure in the aorta of the animal. The signal is detected by a receiver RA1010) placed under the plastic cage which houses the animal.
# Rats were anaesthetised with “Fluothane™” inhalation anaesthetic. The abdomen of the rat was shaved and the skin coated with a topical disinfectant. […]
# Blood pressure data was recorded from each animal every 10 minutes throughout the study. […] This average day time blood pressure measurement for each rat was calculated over a 4 day period immediately prior to the commencement of compound dosing.
# For the next 4 days (i.e. days 11 to 14 of compound dosing) the rats were dosed with the ACE inhibitor captopril at 30 mg/kg p.o. once daily in addition to the quinazoline compound. The average blood pressure of each rat was calculated daily and the difference between the daily calculated pressure and the starting pressure was expressed.
# coronary arteries = settings: dog, in vitro; cited from earlier work
# [2] = conscious rats, VEGF 250 μg/kg; cited from earlier work
# [3] = anaesthetised rats, 15 μg/kg bFGF; cited from earlier work
compound,measurement,setting,value
COc1cc2c(Nc3ccc(Br)cc3F)ncnc2cc1OCC1CCN(C)CC1 [4-(4-bromo-2-fluoroanilino)-6-methoxy-7-(1-methylpiperidin-4-ylmethoxy)quinazoline],effect on the diastolic blood pressure in rats,"[1]; conscious male wistar rats, 12.5 mg/kg p.o. once daily for 10 days, 3 dosed rats and a control rat (FIG. 1)",increase in blood pressure
"C[C@H](CS)C(=O)N1CCC[C@H]1C(=O)O [captopril, reference compound]",effect of addition of ACE inhibitor on the increase in blood pressure caused by the VEGF receptor tyrosine kinase inhibitor,[1]; captopril 30 mg/kg p.o. once daily on days 11 to 14 in addition to the quinazoline compound 12.5 mg/kg p.o.,reversed
VEGF,effect on coronary arteries,coronary arteries,dilate coronary arteries
same,time to return to normal blood pressure,[2],≤ 20 min
"bFGF: basic fibroblast growth factor, polypeptide with endothelial cell growth promoting activity",time to return to normal blood pressure,[3],≤ 30 min
